Reference: patent US20240109842A1, “ACRYLAMIDE COMPOUNDS” (OTSUKA PHARMACEUTICAL CO., LTD., priority 2019, published 2024)

Legend:
[1] = test system: immortalized megakaryocyte cell line; test: Test Example 2: platelet production, shake culturing, with various aryl hydrocarbon receptor antagonists
[2] = test system: immortalized megakaryocyte cell line; test: Test Example 1: platelet production, shake culturing; format: cell-based; conditions: compound 10 μM added at Day 3; for fold induction at 10 µM: Platelet, 144 h, DMSO added at cell seeding (no AhR antagonist), platelets (CD41, CD42a, CD42b-positive) counted after 6 days, read-out: Amount of platelet production (vs. Control); for Amount of platelet production (vs. Control): aryl hydrocarbon receptor antagonist Compound A5 0.1 μM added at cell seeding, counted after 6 days
Description: The immortalized megakaryocyte cell line obtained according to the method described in WO 2016/204256 was washed twice with D-PBS(−) and then cultured in medium not containing doxycycline to terminate forced expression (cultured under conditions where gene expression is OFF). Shake culturing at 100 rpm was performed in the following medium after the cells were seeded in a 125-mL polycarbonate Erlenmeyer flask (Corning #431143) at 25 mL/flask and a seeding density of 1×10^5 cells/mL. Culturing conditions were 37° C. and 5% CO2. The medium was obtained by adding the following components to IMDM serving as the basal medium (concentrations indicate final concentrations). • FBS 15% • L-Glutamine 2 mM • ITS 100-fold dilution • MTG 450 μM • Ascorbic acid 50 μg/mL • SCF 50 ng/mL • TA-316 0.1 μg/mL • ADAM inhibitor 15 μM • ROCK inhibitor 0.5 μM […] After culturing for 6 days in total, the number of platelets was measured. The measurement method was as follows. The same operation was performed for control. At 6 days after initiation of the culturing under conditions where gene expression was OFF, a part of the culture supernatant was collected, and suspended with the following antibody and Flow-Count Fluorospheres (Beckman Coulter #7547053) to perform staining. • APC-labeled anti-CD41 antibody (BioLegend #303710) • eFluor 450-labeled anti-CD42a antibody (eBioscience #48-0428-42) • PE-labeled anti-CD42b antibody (BioLegend #303906) At 30 minutes after staining, number of platelets (CD41, CD42a and CD42b-positive cells) was counted by using FACSVerse (manufactured by BD Japan) with Flow-Count Fluorospheres. The number of platelets was given as a percentage of the control.

[3] = comparative examples: only an aryl hydrocarbon receptor antagonist, no acrylamide compound, A1 0.75 μM, A2 0.1 μM, A3 10 μM, A4 1 μM, A5 to A8 0.1 μM
[4] = Platelet, 144 h, read-out: Amount of platelet production (vs. Control)
[5] = with aryl hydrocarbon receptor antagonist Compound A2 0.1 μM, otherwise as Test Example 1

CC1(C)COc2nc3c(NCCc4ccc(O)c(-c5ccccc5F)c4)nc(-c4cncc(F)c4)nc3n21 [Compound A6, 2-(2-fluorophenyl)-4-[2-[[2-(5-fluoropyridin-3-yl)-8,8-dimethyl-7H-purino[8,9-b][1,3]oxazol-4-yl]amino]ethyl]phenol, reference compound]
Amount of platelet production (vs. Control) [1, 3]: + (the amount of platelets production increased by not less than 1.5 times and less than 6.5 times)

CC1(C)COc2nc3c(NCCc4ccc(O)c(-c5cncc(F)c5)c4)nc(-c4cncc(F)c4)nc3n21 [Compound A7, 2-(5-fluoropyridin-3-yl)-4-[2-[[2-(5-fluoropyridin-3-yl)-8,8-dimethyl-7H-purino[8,9-b][1,3]oxazol-4-yl]amino]ethyl]phenol, reference compound]
Amount of platelet production (vs. Control) [1, 3]: + (the amount of platelets production increased by not less than 1.5 times and less than 6.5 times)

Cc1ccccc1/N=N/c1ccc(NC(=O)c2ccnn2C)c(C)c1 [Compound A4, 1-Methyl-N-[2-methyl-4-[2-(2-methylphenyl)diazenyl]phenyl]-1H-pyrazole-5-carboxamide, reference compound]
fold induction at 1 µM [1, 4]: 1.5 to 6.5

CC1(C)CSc2nc3c(NCCc4ccc(O)c(-c5ccccc5F)c4)nc(-c4cncc(F)c4)nc3n21 [Compound A8, 2-(2-fluorophenyl)-4-[2-[[2-(5-fluoropyridin-3-yl)-8,8-dimethyl-7H-purino[8,9-b][1,3]thiazol-4-yl]amino]ethyl]phenol, reference compound]
fold induction at 0.1 µM [1, 4]: 1.5 to 6.5

CC1(C)COc2nc3c(NCCc4ccc(O)c(-c5cccc(C#N)c5)c4)nc(-c4cncc(F)c4)nc3n21 [Compound A5, 3-[5-[2-[[2-(5-Fluoropyridin-3-yl)-8,8-dimethyl-7H-purino[8,9-b][1,3]oxazol-4-yl]amino]ethyl]-2-hydroxyphenyl]benzonitrile, reference compound]
Amount of platelet production (vs. Control) [1, 3]: + (the amount of platelets production increased by not less than 1.5 times and less than 6.5 times)

CCOc1ccccc1CCNC(=O)/C=C/c1c[nH]c2c(CC)cccc12 [Example 57]
fold induction at 10 µM [2]: 1.5 to 6.5 | Amount of platelet production (vs. Control) [2]: ++ (not less than 6.5 times) | Amount of platelet production (vs. Control) [1, 5]: ++ (not less than 6.5 times)

CCOc1ccc(OC)cc1CCNC(=O)/C=C/c1c[nH]c2c(OC)cccc12 [Example 59]
fold induction at 10 µM [2]: 1.5 to 6.5 | Amount of platelet production (vs. Control) [2]: ++ (not less than 6.5 times) | Amount of platelet production (vs. Control) [1, 5]: ++ (not less than 6.5 times)

CCOc1ccccc1CCNC(=O)/C=C/n1cnc2c(OC)cccc21 [Example 38]
fold induction at 10 µM [2]: 1.5 to 6.5 | Amount of platelet production (vs. Control) [2]: + (the amount of platelets production increased by not less than 1.5 times and less than 6.5 times)

CC(C)n1cnc2c(NCCc3ccc(O)cc3)nc(-c3csc4ccccc34)nc21 [Compound A1, 4-[2-[[2-benzo[b]thien-3-yl-9-(1-methylethyl)-9H-purin-6-yl]amino]ethyl]phenol, reference compound]
fold induction at 0.75 µM [1, 4]: 1.5 to 6.5

COc1cccc2c(/C=C/C(=O)N(C)CCc3ccccc3OCC3CC3)cn(C)c12 [Example 10, (E)-N-[2-[2-(cyclopropylmethoxy)phenyl]ethyl]-3-(7-methoxy-1-methylindol-3-yl)-N-methylprop-2-enamide]
fold induction at 10 µM [2]: 1.5 to 6.5 | Amount of platelet production (vs. Control) [2]: ++ (not less than 6.5 times)

O=C(/C=C/c1c[nH]c2ccccc12)NCCc1ccccc1-c1ncccn1 [Example 47, (E)-3-(1H-indol-3-yl)-N-[2-(2-pyrimidin-2-ylphenyl)ethyl]prop-2-enamide]
fold induction at 10 µM [2]: 1.5 to 6.5 | Amount of platelet production (vs. Control) [2]: ++ (not less than 6.5 times)

CCOc1ccccc1CCNC(=O)/C=C/c1c[nH]c2c(OC)nccc12 [Example 36]
fold induction at 10 µM [2]: 1.5 to 6.5 | Amount of platelet production (vs. Control) [2]: ++ (not less than 6.5 times)

Cc1cc(-c2ccc(CC(=O)Nc3ccc(-c4cccnc4)cc3)cc2)ccn1 [Compound A3, 4-(2-Methyl-4-pyridinyl)-N-[4-(3-pyridinyl)phenyl]-benzeneacetamide, reference compound]
fold induction at 10 µM [1, 4]: 1.5 to 6.5

COc1cccc2c(/C=C/C(=O)NCCc3cc(F)ccc3-c3ccccc3)c[nH]c12 [Example 12]
fold induction at 10 µM [2]: 1.5 to 6.5 | Amount of platelet production (vs. Control) [2]: ++ (not less than 6.5 times)

COc1cccc2c(/C=C/C(=O)NCCc3ccccc3-c3ccco3)c[nH]c12 [Example 26]
fold induction at 10 µM [2]: 1.5 to 6.5 | Amount of platelet production (vs. Control) [2]: ++ (not less than 6.5 times)

COc1cccc2c(/C=C/C(=O)NCCc3ccccc3-n3cccn3)c[nH]c12 [Example 37]
fold induction at 10 µM [2]: 1.5 to 6.5 | Amount of platelet production (vs. Control) [2]: ++ (not less than 6.5 times)

CCOc1ccccc1CCNC(=O)/C=C/c1c[nH]c2c(C)cccc12 [Example 60]
fold induction at 10 µM [2]: 1.5 to 6.5 | Amount of platelet production (vs. Control) [2]: ++ (not less than 6.5 times) | Amount of platelet production (vs. Control) [1, 5]: ++ (not less than 6.5 times)

COC(=O)n1cc(/C=C/C(=O)NCCc2ccccc2-c2ncc(OC)cn2)c2cccc(OC)c21 [Example 55]
fold induction at 10 µM [2]: 1.5 to 6.5 | Amount of platelet production (vs. Control) [2]: ++ (not less than 6.5 times)

COc1cccc2c(/C=C/C(=O)NCCc3ccccc3-c3ncccn3)c[nH]c12 [Example 17, (E)-3-(7-methoxy-1H-indol-3-yl)-N-[2-(2-pyrimidin-2-ylphenyl)ethyl]prop-2-enamide]
fold induction at 10 µM [2]: 1.5 to 6.5 | Amount of platelet production (vs. Control) [2]: ++ (not less than 6.5 times)

CCOc1ccccc1CCNC(=O)/C=C/c1c[nH]c2c(OC)cccc12 [Example 61]
fold induction at 10 µM [2]: 1.5 to 6.5 | Amount of platelet production (vs. Control) [2]: ++ (not less than 6.5 times) | Amount of platelet production (vs. Control) ([1]; with aryl hydrocarbon receptor antagonist Compound A1 0.75 μM, otherwise as Test Example 1): ++ (not less than 6.5 times) | Amount of platelet production (vs. Control) [1, 5]: ++ (not less than 6.5 times) | Amount of platelet production (vs. Control) ([1]; with aryl hydrocarbon receptor antagonist Compound A3 10 μM, otherwise as Test Example 1): ++ (not less than 6.5 times) | Amount of platelet production (vs. Control) ([1]; with aryl hydrocarbon receptor antagonist Compound A4 1 μM, otherwise as Test Example 1): ++ (not less than 6.5 times) | Amount of platelet production (vs. Control) ([1]; with aryl hydrocarbon receptor antagonist Compound A7 0.1 μM, otherwise as Test Example 1): ++ (not less than 6.5 times) | Amount of platelet production (vs. Control) ([1]; with aryl hydrocarbon receptor antagonist Compound A8 0.1 μM, otherwise as Test Example 1): ++ (not less than 6.5 times)
